Test results: patent US20260327242A1, “Platform and Scaffold for FAP Targeting Agents” (Erasmus University Medical Center Rotterdam, priority 2022, published 2026)

Target: T1, mouse FAP (mFAP) (Mus musculus, UniProt P97321)
T1 sequence (P97321 26-761 limits assumed): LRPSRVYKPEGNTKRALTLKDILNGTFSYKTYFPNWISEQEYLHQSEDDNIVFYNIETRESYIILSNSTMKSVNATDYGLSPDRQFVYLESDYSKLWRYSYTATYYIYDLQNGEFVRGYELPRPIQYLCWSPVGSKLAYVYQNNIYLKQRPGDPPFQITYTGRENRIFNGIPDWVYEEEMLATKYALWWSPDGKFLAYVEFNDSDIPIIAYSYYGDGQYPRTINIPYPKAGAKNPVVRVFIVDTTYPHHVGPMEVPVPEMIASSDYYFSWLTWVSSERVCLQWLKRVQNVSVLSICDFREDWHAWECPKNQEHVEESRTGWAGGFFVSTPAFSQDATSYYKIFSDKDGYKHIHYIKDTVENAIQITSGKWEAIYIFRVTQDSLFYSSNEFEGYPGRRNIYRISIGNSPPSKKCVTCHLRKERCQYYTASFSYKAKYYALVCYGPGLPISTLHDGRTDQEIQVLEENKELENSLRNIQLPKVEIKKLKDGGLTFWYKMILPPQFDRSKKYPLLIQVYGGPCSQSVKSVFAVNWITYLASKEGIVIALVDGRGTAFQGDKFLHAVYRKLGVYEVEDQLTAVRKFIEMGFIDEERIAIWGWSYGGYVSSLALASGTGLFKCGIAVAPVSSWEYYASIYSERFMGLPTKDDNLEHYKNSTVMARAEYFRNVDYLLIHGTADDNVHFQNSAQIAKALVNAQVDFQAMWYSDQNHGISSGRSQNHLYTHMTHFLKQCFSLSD
Experiment: In vitro inhibition assay on mouse FAP (Z-GP-AMC substrate)
Type: biochemical
Conditions: 20 μM Z-GP-AMC, 20 nM FAP, pH 7.4, room temperature
Description: Enzymatic activity of human FAP (hFAP) and mouse FAP (mFAP) on the Z-GP-AMC substrate was measured at room temperature on a Hidex microplate reader by monitoring the fluorescence at an excitation wavelength of 360 nm and an emission wavelength of 465 nm. The reaction mixture contained 20 μM substrate, 20 nM FAP, assay buffer (50 mM Tris, 100 mM NaCl, 1 mM EDTA, pH 7.4) and tested compound (serial dilution from 10-6 to 10^−12) in a total volume of 50 μL.
Results with FAPI-46 obtained in the same assay is included for comparison.

IC50 [nM] | SMILES
2.5 ± 0.8 | CN1/C(=C/C=C/C=C/C2=[N+](CCCCCC(=O)NCCCOc3cccc4c(C(=O)NCC(=O)N5CC(F)(F)C[C@H]5C#N)ccnc34)c3ccc(S(=O)(=O)[O-])cc3C2(C)C)C(C)(C)c2cc(S(=O)(=O)O)ccc21 [eFAP-7, 1-(6-((3-((4-((2-((S)-2-Cyano-4,4-difluoropyrrolidin-1-yl)-2-oxoethyl)carbamoyl)quinolin-8-yl)oxy)propyl)amino)-6-oxohexyl)-3,3-dimethyl-5-sulfo-2-((1E,3E)-5-((E)-1,3,3-trimethyl-5-sulfoindolin-2-ylidene)penta-1,3-dien-1-yl)-3H-indol-1-ium]
1.5 ± 0.2 | N#C[C@@H]1CC(F)(F)CN1C(=O)CNC(=O)c1ccnc2c(OCCCNC(=O)COCC(=O)Nc3ccc(CNC(=O)CN4CCN(CC(=O)O)CCN(CC(=O)O)CCN(CC(=O)O)CC4)cc3)cccc12 [eFAP-11, (S)-2,2′,2″-(10-(2-((4-(2-(2-((3-((4-((2-(2-Cyano-4,4-difluoropyrrolidin-1-yl)-2-oxoethyl)carbamoyl)quinolin-8-yl)oxy)propyl)amino)-2-oxoethoxy)acetamido)benzyl)amino)-2-oxoethyl)-1,4,7,10-tetraazacyclododecane-1,4,7-triyl)triacetic acid]
1.8 ± 0.2 | N#C[C@@H]1CC(F)(F)CN1C(=O)CNC(=O)c1ccnc2c(OCCCNC(=O)CN3CCN(C(=O)CN4CCN(CC(=O)O)CCN(CC(=O)O)CCN(CC(=O)O)CC4)CC3)cccc12 [eFAP-12, (S)-2,2′,2″-(10-(2-(4-(2-((3-((4-((2-(2-Cyano-4,4-difluoropyrrolidin-1-yl)-2-oxoethyl)carbamoyl)quinolin-8-yl)oxy)propyl)amino)-2-oxoethyl)piperazin-1-yl)-2-oxoethyl)-1,4,7,10-tetraazacyclododecane-1,4,7-triyl)triacetic acid]
1.3 ± 0.6 | N#C[C@@H]1CC(F)(F)CN1C(=O)CNC(=O)c1ccnc2c(OCCCNC(=O)CN3CCN(CCNC(=O)CN4CCN(CC(=O)O)CCN(CC(=O)O)CCN(CC(=O)O)CC4)CC3)cccc12 [eFAP-13, (S)-2,2′,2″-(10-(2-((2-(4-(2-((3-((4-((2-(2-Cyano-4,4-difluoropyrrolidin-1-yl)-2-oxoethyl)carbamoyl)quinolin-8-yl)oxy)propyl)amino)-2-oxoethyl)piperazin-1-yl)ethyl)amino)-2-oxoethyl)-1,4,7,10-tetraazacyclododecane-1,4,7-triyl)triacetic acid]
2 ± 0.4 | N#C[C@@H]1CC(F)(F)CN1C(=O)CNC(=O)c1ccnc2c(OCCCNC(=O)CC(O)CNC(=O)CC(O)CNC(=S)Nc3ccc4c(c3)C(=O)OC43c4ccc(O)cc4Oc4cc(O)ccc43)cccc12 (stereo partly drawn) [eFAP-23, N-(2-((S)-2-cyano-4,4-difluoropyrrolidin-1-yl)-2-oxoethyl)-8-(3-(4-(4-(3-(3′,6′-dihydroxy-3-oxo-3H-spiro[isobenzofuran-1,9′-xanthen]-5-yl)thioureido)-3-hydroxybutanamido)-3-hydroxybutanamido)propoxy)quinoline-4-carboxamide]
0.8 ± 0.1 | N#C[C@@H]1CC(F)(F)CN1C(=O)CNC(=O)c1ccnc2c(OCCCNC(=O)CCOCCOCCNc3nc(NCCCn4nnc5c4CC[C@H]4[C@@H](CC5)[C@H]4COC(=O)NCCNC(=O)CCC(C(=O)O)N4CCN(CC(=O)O)CCN(CC(=O)O)CCN(CC(=O)O)CC4)nc(NCCOCCOCCC(=O)NCCCOc4cccc5c(C(=O)NCC(=O)N6CC(F)(F)C[C@H]6C#N)ccnc45)n3)cccc12 (stereo partly drawn) [eFAP-37]
